In patent US20260324636A1, “COMPOSITION FOR PROVIDING PLANT WITH STRESS RESISTANCE” (KIRIN HOLDINGS KABUSHIKI KAISHA, priority 2022, published 2026) one finds fold induction data, which are given here for one molecule.

In this assay the test system is ZAT10. Put plainly: ZAT10 gene expression by real-time PCR, Example 11. In kind it is in vivo. The note with it: Arabidopsis thaliana; 0.4 mM, 22° C. for 2 hours; read-out: ZAT10 expression level, increase vs control. As to the method: The materials as used in Example 1 were used.
The medium as used in Example 1 was used.
To the Arabidopsis thaliana plants grown for 7 days in the same manner as in Example 1, 0.4 mM N-acetylglutamic acid or an equivalent amount of sterile water was added, and the plants were incubated at 22° C. for 2 hours. After incubation for 2 hours, the samples were frozen with liquid nitrogen, and RNA was extracted using the RNeasy Plant Mini Kit […].
cDNA that would be necessary as a real-time PCR template was synthesized from the RNA obtained. 1000 ng total RNA was used for each sample, and cDNA was synthesized using the Verso cDNA Synthesis Kit (Thermo Fischer Scientific). The synthesized cDNA was diluted to 5-fold with sterile distilled water and subjected to real-time PCR. For real-time PCR, a reaction solution containing ZAT10 (AGI code: AT1G27730) and ZAT12 (AGI code: AT5G59820) as the target genes, PP2AA3 (AGI code: AT1G13320) as the reference gene, and TB Green Ex Taq II (TakaRa) was prepared. PCR was performed with the use of the LightCycler® 480 System (Roche) with the number of amplification cycles of 50. The primers shown below were used.
Thereafter, the relative expression levels of the target genes upon N-acetylglutamic acid treatment were calculated by the ΔΔCt method using the Cp values obtained by real-time PCR.
(In qPCR the cycle at which signal appears reflects the starting amount.)

As to `CC(=O)N[C@@H](CCC(=O)O)C(=O)O` [N-acetylglutamic acid], the fold induction at 400 µM is 28.
